Patent US9827292B2, “Use of KGF in the treatment of menopausal disorders” (Università degli Studi di Roma “La Sapienza”, priority 2012, dated 2017)

Tests used:
Assay type in all cases: cell-based, human
MAPK p38 = test: Western blot of p38 phosphorylation in MCF-7 cells; settings: 20 ng/ml, 5 or 30 minutes, FIG. 2B
Procedure: The oestrogen receptor α-positive MCF-7 human breast adenocarcinoma cell line, acquired from American Type Culture Collection (no. HTB-22, ATCC-LGC Promochem, Teddington, UK), was cultured in Dulbecco's modified eagle's medium (DMEM; Invitrogen, Karlsruhe, Germany), supplemented with 10% foetal bovine serum (FBS; Invitrogen) and antibiotics. Primary cultures of human oestrogen-sensitive keratinocytes (KCs) were established from 1 cm^2 full-thickness mucosal biopsy of the vaginal vestibule. Following enzymatic dissociation, the keratinocytes were seeded onto culture plates coated with collagen IV (10 mg/ml), as previously reported [Panici et al, 2007], and were maintained in basal medium of the keratinocytes (KBM, Lonza) supplemented with aliquots of KGM (Lonza), with medium change twice a week. […]
(§1) MCF-7 cells untreated or treated with KGF or E2 were lysed in RIPA buffer. […] The bound antibody was detected by enhanced chemiluminescence detection reagents (Pierce Biotechnology, Inc, Rockford, Ill., USA), according to manufacturer's instructions. […] Densitometric analysis was performed using Quantity One Program (Bio-Rad Laboratories srl, Segrate, MI, Italy).

ERalpha [1] = test: Immunofluorescence localisation of ER in MCF-7 cells; settings: 5 or 30 min treatment, FIG. 4B
Procedure: (§2) The oestrogen receptor α-positive MCF-7 human breast adenocarcinoma cell line, acquired from American Type Culture Collection (no. HTB-22, ATCC-LGC Promochem, Teddington, UK), was cultured in Dulbecco's modified eagle's medium (DMEM; Invitrogen, Karlsruhe, Germany), supplemented with 10% foetal bovine serum (FBS; Invitrogen) and antibiotics. Primary cultures of human oestrogen-sensitive keratinocytes (KCs) were established from 1 cm^2 full-thickness mucosal biopsy of the vaginal vestibule. […]
The cells, grown on glass coverslips, were treated as described above, then fixed in 4% paraformaldehyde in phosphate-buffered saline (PBS) for 30 min at 25° C., followed by treatment with 0.1 M glycine in PBS for 20 min at 25° C. and with 0.1% Triton X-100 in PBS for an additional 5 min at 25° C. to allow permeabilisation. […] Fluorescence signals were analysed by recording stained images using a cooled CCD colour digital camera SPOT-2 (Diagnostic Instruments Incorporated, Sterling Heights, Mich.) and Axiovision software (Carl Zeiss Inc., Oberkochen, Germany).
The percentage of Ki67-positive cells was evaluated by counting, for each treatment, a total of 500 cells, randomly taken from ten microscopic fields in three different experiments, expressed as mean value±95% CI and recorded as graphs. […]

ERalpha [2] = test: Nucleocytoplasmic fractionation and Western blot for ER in MCF-7 cells; settings: 5 or 30 min treatment, FIG. 4A
Procedure: as §2, §1
The cells were harvested in PBS and centrifuged at 2000 rpm for 5 minutes to obtain a pellet, resuspended in cellular lysis buffer containing Hepes 10 mM pH 8, 50 mM NaCl, 1 mM EDTA pH 8, 0.2% TritonX100, sucrose 500 mM and protease inhibitors, stirred, and placed in ice for 15 min. […] The efficiency of the fractionation was analysed by means of immunoblotting using an anti-β-tubulin antibody as cytoplasmic marker and an anti-lamin B antibody as nuclear marker.

Molecule	phosphorylation of p38 (MAPK p38)	cellular localisation of ER by immunofluorescence (ERalpha [1])	redistribution of ER between cytoplasmic and nuclear fractions (ERalpha [2])
C[C@]12CC[C@@H]3c4ccc(O)cc4CC[C@H]3[C@@H]1CC[C@@H]2O [E2, 17β-oestradiol]	able to phosphorylate the protein p38	movement of ER in the nucleus	dramatic redistribution of ER in the nucleus
keratinocyte growth factor (protein, listed as Homo sapiens, human recombinant KGF (Upstate Biotechnology)) MHKWILTWILPTLLYRSCFHIICLVGTISLACNDMTPEQMATNVNCSSPERHTRSYDYMEGGDIRVRRLFCRTQWYLRIDKRGKVKGTQEMKNNYNIMEIRTVAVGIVAIKGVESEFYLAMNKEGKLYAKKECNEDCNFKELILENHYNTYASAKWTHNGGEMFVALNQKGIPVRGKKTKKEQKTAHFLPMAIT	able to phosphorylate the protein p38	unexpected localisation of ER on the plasmatic membrane	does not appear able to induce any significant redistribution of the receptor in the nucleus
